Laboratory results published in the NIST ThermoML archive (doi:10.1016/j.fluid.2014.01.022).
± gives the expanded uncertainty stated by the source.

Experiments:
[1] = refractive index (Na D-line) (dimensionless); details: 298.15 K; 101.3 kPa; Liquid; Standard Abbe refractometry
[2] = Liquid; for mass density: 298.15 K, 101.33 kPa, Vibrating tube method; for Normal boiling temperature: Ebulliometric method (Recirculating still)

A refractive index [1] of 1.4024 ± 0.0007, a mass density [2] of 916.5 ± 0.2 kg/m3 and a Normal boiling temperature [2] of 120.2 ± 1 °C were found for `COCC(C)O` (stereo not given) [1-methoxy-2-propanol] in this work.

A refractive index [1] of 1.4 ± 0.0007, a mass density [2] of 963 ± 0.2 kg/m3 and a Normal boiling temperature [2] of 146 ± 1 °C were found for `COCC(C)OC(C)=O` (stereo not given) [1-methoxy-2-propyl acetate] in this work.

A refractive index [1] of 1.3269 ± 0.0007, a mass density [2] of 786.9 ± 0.2 kg/m3 and a Normal boiling temperature [2] of 64.6 ± 1 °C were found for `CO` [methanol] in this work.

A refractive index [1] of 1.3596 ± 0.0007, a mass density [2] of 927.5 ± 0.2 kg/m3 and a Normal boiling temperature [2] of 57.2 ± 1 °C were found for `COC(C)=O` [methyl ethanoate] in this work.

A refractive index [1] of 1.375 ± 0.0007, a mass density [2] of 781.4 ± 0.2 kg/m3 and a Normal boiling temperature [2] of 82.5 ± 1 °C were found for `CC(C)O` [propan-2-ol] in this work.
